# Measurements taken from BindingDB's records for doi:10.1021/jm00103a008 (National Institute of Diabetes and Digestive and Kidney …, 1993).
# Assay: Compound was evaluated for its ability to displace [3H](+)-pentazocine from sigma receptor in Guinea pig brain
row,Structure (SMILES),Ki [µM]
1,c1ccc([C@]2(N3CCCCC3)CC[C@H]3C[C@H]32)cc1,4.45
2,c1ccc([C@]2(N3CCCCC3)CC[C@@H]3C[C@@H]32)cc1,7.28
3,c1ccc([C@@]2(N3CCCCC3)CC[C@H]3C[C@H]32)cc1,1.13
